This is an account of results in article PMC8286840, “Identifying SARS-CoV-2 antiviral compounds by screening for small molecule inhibitors of Nsp3 papain-like protease” (Biochemical Journal, 2021).

In assay [1] the target is T1, SARS-CoV-2 PLpro (nsp3 1564–1878) (Severe acute respiratory syndrome coronavirus 2, UniProt P0DTD1). The assay can be described thus: biochemical. The arrangement: FRET-quenched peptide (Pro3) cleavage by PLpro, 10 min pre-incubation, slope over 20 min, normalised to no-compound control. The settings on record: low concentration screen, read-out: % of control remaining.

Assay [2] deals with T1, SARS-CoV-2 PLpro (nsp3 1564–1878). Put plainly: biochemical. Also on record: FRET-quenched peptide (Pro3) cleavage by PLpro, 10 min pre-incubation, slope over 20 min, normalised to no-compound control. Conditions: high concentration screen, read-out: % of control remaining.

SMILES strings stand for the structures. Where a name gives a salt, the structure may show the parent alone. Read-outs that look alike come from different tables or passages of the source. Where a SMILES comes first, the peptide text is derived from it. [ ]: non-standard residue; d: D form. Nle = CCCC[C@H](N)C(=O)O

`OC[C@H]1O[C@@H](n2cnc3c(N[C@@H]4CCOC4)ncnc32)[C@H](O)[C@@H]1O` [Tecadenoson]: the remaining activity at 1.25 µM in assay [1] (Well no.=7966) came to 96.9%; in assay [1] (Well no.=8315) it was 94.2%. For the same molecule, the remaining activity at 3.75 µM in assay [2] (Well no.=7966) was determined as 96.1%; in assay [2] (Well no.=8315) it was 94.4%.
For the molecule `O=C(c1ccc(OCCCc2c[nH]cn2)cc1)C1CC1` [Ciproxifan (maleate)], in assay [1] (Well no.=7089), the remaining activity at 1.25 µM is 103%. The remaining activity at 3.75 µM in assay [2] (Well no.=7089) worked out at 105%.
For the molecule `O=c1c(-c2ccc(O)cc2)coc2cc(O)cc(O)c12` [Genistein], the remaining activity at 1.25 µM in assay [1] (Well no.=573) came out at 95%; in assay [1] (Well no.=3315), 94.8%; in assay [1] (Well no.=3947), 98.6%; in assay [1] (Well no.=6492) it was 103%. Also, the remaining activity at 3.75 µM is 94% in assay [2] (Well no.=573), 101% in assay [2] (Well no.=3315), 98.5% in assay [2] (Well no.=3947) and 103% in assay [2] (Well no.=6492).
As to `Cc1ccc(NC(=O)CCCCCC(=O)Nc2ccccc2N)cc1` [Pimelic Diphenylamide 106 (analog)], in assay [1] (Well no.=8230), the remaining activity at 1.25 µM was found to be 104%. In addition, in assay [2] (Well no.=8230), the remaining activity at 3.75 µM turned out to be 102%.
With `CCOc1nc2cccc(C(=O)OC(C)OC(=O)OC3CCCCC3)c2n1Cc1ccc(-c2ccccc2-c2nn[nH]n2)cc1` (stereo not shown) [Candesartan (Cilexetil)], the remaining activity at 1.25 µM in assay [1] (Well no.=7673) was determined as 95.7%. Further, the remaining activity at 3.75 µM in assay [2] (Well no.=7673) is 92.5%.
For `O=C1NC(=O)/C(=C/c2ccc3nccnc3c2)S1` [PI 3-Kg Inhibitor], in assay [1] (Well no.=2515), the remaining activity at 1.25 µM was 99.9%. Moreover, the remaining activity at 3.75 µM in assay [2] (Well no.=2515) turned out to be 106%.
Turning to `Cc1c(NC(=O)c2cc(C(N)=O)nc3cc(F)ccc23)c(C(F)(F)F)nn1Cc1ccc(C#N)cc1` [BAY-876], the remaining activity at 1.25 µM in assay [1] (Well no.=8680) stood at 101%. Moreover, the remaining activity at 3.75 µM in assay [2] (Well no.=8680) worked out at 98.3%.
As for `NC(=O)c1ccc2[nH]ccc2c1` [SD169], in assay [1] (Well no.=2797), the remaining activity at 1.25 µM was 106%. For the same molecule, in assay [2] (Well no.=2797), the remaining activity at 3.75 µM was found to be 106%.
As to `CCCC[C@@H](C=O)NC(=O)[C@H](CC(C)C)NC(=O)[C@H](CC(C)C)NC(C)=O` [(2S)-2-(acetylamino)-N-[(1S)-1-({[(1S)-1-formylpentyl]amino}carbonyl)-3-methylbutyl]-4-methylpentanamide] (Ac-Leu-Leu-[Nle]-aldehyde), the remaining activity at 1.25 µM in assay [1] (Well no.=5774) is 95.7%. For the same molecule, in assay [2] (Well no.=5774), the remaining activity at 3.75 µM amounted to 95.3%.
As to `CC(C)(C)[C@H]1CC[C@H](N(Cc2ccc(C(=O)NCCC(=O)O)cc2)C(=O)Nc2ccc(OC(F)(F)F)cc2)CC1` [GRA Ex-25], the remaining activity at 1.25 µM in assay [1] (Well no.=6180) was found to be 103%. In addition, the remaining activity at 3.75 µM in assay [2] (Well no.=6180) worked out at 106%.
Take `CC1(C)O[C@@H]2C[C@H]3[C@@H]4CCC5=CC(=O)C=C[C@]5(C)[C@H]4[C@@H](O)C[C@]3(C)[C@]2(C(=O)CO)O1` [Desonide]: the results for the remaining activity at 1.25 µM in assay [1] (Well no.=5339) and in assay [1] (Well no.=8291) were 95.1% and 99.7%, respectively. Further, the remaining activity at 3.75 µM in assay [2] (Well no.=5339) stood at 84.9%; in assay [2] (Well no.=8291), 96%.
As to `CN(Cc1cnc2nc(N)nc(N)c2n1)c1ccc(C(=O)N[C@@H](CCC(=O)O)C(=O)O)cc1` [Methotrexate], the results for the remaining activity at 1.25 µM in assay [1] (Well no.=69) and in assay [1] (Well no.=7352) were 94.1% and 94.4%, respectively. Further, the remaining activity at 3.75 µM is 95.5% in assay [2] (Well no.=69) and 97.6% in assay [2] (Well no.=7352).
On to `COc1c2c3c4c(c(OC)c(=O)c5c(O)cc(OC)c(c6c(OC)cc(O)c(c1=O)c63)c54)[C@@H](C(C)=O)[C@@](C)(O)C2` [Hypocrellin A], for which the remaining activity at 1.25 µM in assay [1] (Well no.=3645) stood at 94%. Also, the remaining activity at 3.75 µM in assay [2] (Well no.=3645) turned out to be 92.4%.
For the molecule `CCOC(=O)Nc1ccc(NCc2ccc(F)cc2)nc1N` [Flupirtine maleate], the remaining activity at 1.25 µM in assay [1] (Well no.=711) amounted to 95.7%. Moreover, the remaining activity at 3.75 µM in assay [2] (Well no.=711) came out at 90.6%.
With `C[C@](N)(Cc1ccc(O)cc1)C(=O)O` [L-alpha-Methyl-p-tyrosine], the remaining activity at 1.25 µM in assay [1] (Well no.=843) worked out at 104%. Moreover, in assay [2] (Well no.=843), the remaining activity at 3.75 µM was 106%.
With `COC1=CC(c2cc3ccccc3[nH]2)=N/C1=C\c1[nH]c(C)cc1C` [Obatoclax mesylate (GX15-070)], in assay [1] (Well no.=4619), the remaining activity at 1.25 µM turned out to be 95.3%. Besides, the remaining activity at 3.75 µM in assay [2] (Well no.=4619) was found to be 98.7%.
As to `CC[C@@]1(O)C(=O)OCc2c1cc1n(c2=O)Cc2cc3c(CN(C)C)c(O)ccc3nc2-1` [Topotecan hydrochloride hydrate], in assay [1] (Well no.=6019), the remaining activity at 1.25 µM was 103%. Also, the remaining activity at 3.75 µM in assay [2] (Well no.=6019) stood at 99%.
Regarding `CCOC(OCC)P(=O)(O)CCCNCc1ccc(Cl)c(Cl)c1` [3-[(3,4-dichlorobenzyl)amino]propyl(diethoxymethyl)phosphinic acid], in assay [1] (Well no.=6020), the remaining activity at 1.25 µM stood at 98.7%. Also, the remaining activity at 3.75 µM in assay [2] (Well no.=6020) is 93.6%.
As to `CC(C)N(CCC(C(N)=O)(c1ccccc1)c1ccccn1)C(C)C` (stereo not shown) [Disopyramide], the remaining activity at 1.25 µM in assay [1] (Well no.=390) was 101%. For the same molecule, in assay [2] (Well no.=390), the remaining activity at 3.75 µM was found to be 101%.
On to `O=C(Nc1ccccc1-c1cn2c(CN3CCNCC3)csc2n1)c1cnc2ccccc2n1` [SRT1720], for which, in assay [1] (Well no.=4673), the remaining activity at 1.25 µM worked out at 100%. The remaining activity at 3.75 µM in assay [2] (Well no.=4673) worked out at 98.8%.
On to `NCC(O)c1ccccc1` (stereo not shown) [2-Amino-1-phenylethanol], for which the remaining activity at 1.25 µM in assay [1] (Well no.=7217) was 95.5%. Further, in assay [2] (Well no.=7217), the remaining activity at 3.75 µM came to 96.7%.
As for `Cn1c(=O)c2c(ncn2C)n(C)c1=O` [Caffeine], the remaining activity at 1.25 µM was 95.2% in assay [1] (Well no.=329), 105% in assay [1] (Well no.=1737) and 89.5% in assay [1] (Well no.=3344). For the same molecule, the figures for the remaining activity at 3.75 µM in assay [2] (Well no.=329), in assay [2] (Well no.=1737) and in assay [2] (Well no.=3344) were 95.9%, 103% and 91.8%, respectively.
For `NC(=O)C(c1ccccc1)(c1ccccc1)[C@@H]1CCN(CCc2ccc3c(c2)CCO3)C1` [Darifenacin HBr], in assay [1] (Well no.=5361), the remaining activity at 1.25 µM stood at 104%. For the same molecule, the remaining activity at 3.75 µM in assay [2] (Well no.=5361) came to 97.1%.
As to `CCCCCCCC/C=C\CCCCCCC(O)C(=O)O` (stereo not shown) [2OHOA], the remaining activity at 1.25 µM in assay [1] (Well no.=5534) came to 97.8%. The remaining activity at 3.75 µM in assay [2] (Well no.=5534) came out at 96.7%.
As to `COc1cc(/C=C/C(=O)c2ccc(O)cc2O)ccc1O` [Homobutein], the remaining activity at 1.25 µM in assay [1] (Well no.=3637) stood at 99.6%. The remaining activity at 3.75 µM in assay [2] (Well no.=3637) is 102%.
Turning to `CC(=O)OCC(=O)[C@@]1(O)CC[C@H]2[C@@H]3CCC4=CC(=O)CC[C@]4(C)[C@H]3C(=O)C[C@@]21C` [Cortisone (acetate)], the remaining activity at 1.25 µM in assay [1] (Well no.=6321) amounted to 106%. In addition, in assay [2] (Well no.=6321), the remaining activity at 3.75 µM amounted to 105%.
Regarding `CC[C@H](CC[C@@H](C)[C@H]1CC[C@H]2[C@@H]3CC=C4C[C@@H](O)CC[C@]4(C)[C@H]3CC[C@]12C)C(C)C`, the remaining activity at 1.25 µM in assay [1] (Well no.=3416) was 93.1%. Moreover, the remaining activity at 3.75 µM in assay [2] (Well no.=3416) was 96.8%.
